The record followed here is PMC10249896, “AI-Assisted chemical probe discovery for the understudied Calcium-Calmodulin Dependent Kinase, PNCK” (PLOS Computational Biology, 2023).

Usually inhibition stands for the share of the control response that was lost under treatment. The term IC50 denotes the concentration that gives 50% inhibition. A high value points to a need for much substance.

Several values for one entry are separate records, joined by “and”; a condition that tells them apart may be missing. Equal entries are not always repeated.

For this data set, the target named is T1, PNCK Nano-luciferase fusion (Homo sapiens, UniProt Q6P2M8).
T1 construct: host or cells: HEK293
In words: NanoBRET Target Engagement Intracellular Kinase Assay, cell-based PNCK binding screen and dose response in HEK293 cells. The note with it: for inhibition at 1 µM: compound 1uM, read-out: Avg. Normalized % Inhibition, 1uM, Nanobret; for inhibition at 1 µM / inhibition at 10 µM / IC50: HEK293; for inhibition at 1 µM / inhibition at 10 µM: K10 tracer 1uM, normalized to staurosporine and DMSO; for inhibition at 10 µM: compound 10uM, read-out: Avg. Normalized % Inhibition, 10uM, Nanobret; for NanoBRET binding, result in words: cell-based screen / comparison with parent hit; for IC50: 8-point concentration-response; for cell permeability: stated on testing in NanoBRET assay. Here is the method: The NanoBRET Target Engagement Intracellular Kinase Assay (Promega N2520) is a cell-based binding screen which reads loss of BRET signal as a result of target binding. A PNCK Nano-luciferase fusion vector plasmid was generated custom by Promega. The K-10 tracer was used for the assay, as determined by Promega. The plasmid was maxiprepped by Genewiz for use in all future assays. HEK293 cells were seeded in a T175 flask in DMEM with 10% FBS. The following day, cells were counted to 10,000, resuspended in assay media (Optimem with no phenol red, 1% FBS). Plasmid and transfection reagent (Fugene HD, Promega E2311) were added to the mixture and cells were seeded in a white 96-well plate. After 20–24 hours, media was changed, and the assay proceeded according to protocol. K10 tracer was added at the recommended concentration of 1uM while compounds were initially screened at both 10uM and 1uM. Cells incubated with compound at 37 degrees Celsius for a maximum of 2 hours before the plate was read using Clariostar Plus. Data was normalized to Staurosporine and DMSO controls. For compounds selected for further analysis, dose response curves were generated using the same testing protocol but at 8 different concentrations: 24uM, 12uM, 6uM, 3uM, 1.5uM, .75uM 0.375uM and 0.1875uM. UM195 was tested with concentrations from 12uM to 0.09375. Similarly, compounds from the analog by catalog analysis were tested at concentrations from 24uM to 0.1875uM.
Data analysis of ADP Kinase Glo results were carried out per the manufacturer’s instructions. Results were represented as a percent decrease in activity. Data was normalized to staurosporine (positive control) as 100% decrease and DMSO (negative control) as a 0% decrease. Data for NanoBRET was analyzed by dividing the acceptor by the donor emission and […] to obtain raw millibret units (mBU). Background was subtracted using control emission averages. Data was normalized to positive and negative controls of staurosporine and DMSO. Concentration-response curves were plotted in GraphPad Prism 8 and IC50s were extrapolated using non-linear fit with concentrations transformed to logarithmic scale. Baseline was held constant and represented the average mBU of staurosporine controls while the top was constrained to represent the average mBU of DMSO controls. Error bars on dose-response curves represent standard deviations.
Background: Bioluminescence resonance energy transfer reports proximity on the nanometre scale.

T1 sequence (Q6P2M8 whole entry, the tested form may be a part): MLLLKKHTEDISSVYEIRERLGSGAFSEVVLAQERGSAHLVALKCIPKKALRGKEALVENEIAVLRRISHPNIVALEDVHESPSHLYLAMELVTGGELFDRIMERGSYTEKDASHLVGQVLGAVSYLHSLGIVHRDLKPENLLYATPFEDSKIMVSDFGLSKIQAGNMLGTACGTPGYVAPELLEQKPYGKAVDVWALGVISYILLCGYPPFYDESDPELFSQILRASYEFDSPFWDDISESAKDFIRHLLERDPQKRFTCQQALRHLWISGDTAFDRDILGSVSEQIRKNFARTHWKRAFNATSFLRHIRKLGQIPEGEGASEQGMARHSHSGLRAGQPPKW

On to `Cn1cnn(CN2CCN(c3ccc(O)cc3)CC2)c1=S` [UM_199], for which the inhibition at 1 µM came out at 0% and the inhibition at 10 µM is 16.9%.
On to `COc1ccccc1N(CCC(N)=O)C(=O)COc1ccc2c(c1)CCCC2=O` [UM_249], for which the inhibition at 1 µM amounted to 22.8% and the inhibition at 10 µM stood at 41.8%.
For `O=c1[nH]c(CSc2ncccn2)nc2ccc(Cl)cc12` [UM_278], the “NanoBRET binding, result in words” value is reported as “did not demonstrate significantly improved binding”; the inhibition at 1 µM is 10.9%; the inhibition at 10 µM is 23.6%.
For the compound `Cn1c(=O)n(C(N)=O)c(=O)c2c1nc1n2CCCN1c1ccc(F)cc1` [UM_223], the inhibition at 1 µM worked out at 17% and the inhibition at 10 µM stood at 44.6%.
The like results for `Cc1nc(N2CCC[C@H]3C(=O)NC[C@H]32)c2c(C)c(C)sc2n1` [UM_194] were, in that order, 1.43% and 27.6%.
In the case of `COc1cccc(-c2nc3c(c(=O)[nH]2)Cc2cc(Br)ccc2O3)c1O` [UM_229], the inhibition at 1 µM came out at 27.5% and the inhibition at 10 µM worked out at 54%.
Take `NC(=O)Cn1cnc2cc(-c3ccc(Cl)cc3)sc2c1=O` [UM_219]: the inhibition at 1 µM worked out at 0.98% and the inhibition at 10 µM worked out at 31.1%.
On the same counts, the results for `CCc1nc(N)nc(SCCCn2c(=O)[nH]c3ccccc32)n1` [UM_276] are 10.9% and 37.8%.
On to `Cc1cc(C)n2nc(SCc3nc(-c4ccccc4)no3)nc2n1` [UM_217], for which the inhibition at 1 µM turned out to be 10.5% and the inhibition at 10 µM amounted to 49.3%.
For the compound `O=C(COc1ccc2c3c(c(=O)oc2c1)CCCCC3)N1CCc2ccccc21` [UM_213, 3-[2-(2,3-dihydro-1H-indol-1-yl)-2-oxoethoxy]-6H,7H,8H,9H,10H,11H-cyclohepta [c]chromen-6-one], the IC50 was determined as 9.49 µM, the inhibition at 1 µM is 56.7% and the inhibition at 10 µM turned out to be 91.5%. The “Dose-Response Curve Data (NanoBRET signal, replicates)” value (“Dose-Response Curve Data” below) (Concentration 1.20E-05 M) is 7.35 and 7.43 (2×). In addition, the “Dose-Response Curve Data” value (Concentration 1.50E-06 M) was 8.59 and 8.87 and 8.44. Besides, the “Dose-Response Curve Data” value (Concentration 1.88E-07 M) is 8.66 and 8.93 and 8.52. Also, the “Dose-Response Curve Data” value (Concentration 2.40E-05 M) was 6.31 and 6.47 and 6.34. The “Dose-Response Curve Data” value (Concentration 3.00E-06 M) is 8.12 and 8.73 and 8.41. The “Dose-Response Curve Data” value (Concentration 3.75E-07 M) is 8.92 and 8.51 and 8.71. For the same compound, for the setting “Concentration 6.00E-06 M”, the “Dose-Response Curve Data” value is 8.04 and 8.33 and 8.32. Besides, the “Dose-Response Curve Data” value (Concentration 7.50E-07 M) is 8.68 and 8.62 and 8.88.
Consider `Cc1nc2c3ccccc3nc(SCCCn3c(=O)[nH]c4ccccc43)n2n1` [UM_277], for which the IC50 came out at 16.1 µM, the inhibition at 1 µM turned out to be 37.1% and the inhibition at 10 µM amounted to 68.6%.
In the case of `O=C1CCCN1CC(O)COc1ccc2c3c(c(=O)oc2c1)CCCCC3` (centres unmarked) [UM_257], the inhibition at 1 µM was determined as 15.2% and the inhibition at 10 µM worked out at 48.6%.
Regarding `N#Cc1cnc(Sc2nnc(-c3cccc4ccccc34)o2)cn1` [UM_195, 5-[5-(naphthalen-1-yl)-1,3,4-oxadiazol-2-yl]sulfanylpyrazine-2-carbonitrile], the IC50 worked out at 3.36 µM, the inhibition at 1 µM was 22.1% and the inhibition at 10 µM came to 100%. In addition, the “Dose-Response Curve Data” value (Concentration 1.20E-05 M) is 5.32 and 5.59 and 5.20. Also, the “Dose-Response Curve Data” value (Concentration 1.50E-06 M) is 7.80 and 7.94 and 7.90. Further, the “Dose-Response Curve Data” value (Concentration 1.88E-07 M) was 9.08 and 9.29 and 8.92. For the same compound, the “Dose-Response Curve Data” value (Concentration 3.00E-06 M) is 7.45 and 6.56 and 7.25. For the same compound, the “Dose-Response Curve Data” value (Concentration 3.75E-07 M) is 9.32 and 8.97 and 9.18. Moreover, the “Dose-Response Curve Data” value (Concentration 6.00E-06 M) is 5.79 and 6.12 (2×). Also, for the setting “Concentration 7.50E-07 M”, the “Dose-Response Curve Data” value was 8.84 and 8.55 and 8.27. The “Dose-Response Curve Data” value (Concentration 9.38E-08 M) was 9.33 and 9.39 and 8.87.
Consider `O=C(O)c1cccc(S(=O)(=O)Nc2nc3ccc(Cl)cc3s2)c1` [UM_203], for which the inhibition at 1 µM is 5.12% and the inhibition at 10 µM is 22.7%.
The like results for `CCOCCn1c(CN2CCN(CC)CC2)nc2c1c(O)nc(=O)n2C` [UM_227] were, in that order, 22.4% and 49.4%.
The like results for `Cc1cc(NC(=O)[C@@H]2CCO[C@H]2c2nccn2C)nnc1C` [UM_221] were, in that order, 0% and 14.7%.
The like results for `CC1CCc2c(sc(NC(=O)c3cccs3)c2C(N)=O)C1` (centres unmarked) [UM_255] were, in that order, 0% and 1.24%.
Regarding `CCn1c(SCCCn2c(=O)[nH]c3ccccc32)n[nH]c1=O` [UM_274], the IC50 was found to be 10.3 µM, the inhibition at 1 µM was 34.2% and the inhibition at 10 µM amounted to 71.8%.
`O=c1[nH]c(-c2ccc(-n3cccn3)nc2)nc2sc3ccccc3c12` [UM_208]: the inhibition at 1 µM was found to be 5.94% and the inhibition at 10 µM stood at 87.8%.
The like results for `Cc1nnc(SCCCn2c(=O)[nH]c3ccccc32)n1N` [UM_275] were, in that order, 12% and 52.2%.
With `Clc1nc(CN2CCCCC2)nc2sc3c(c12)CCC3` [UM_220], the inhibition at 1 µM amounted to 1.68% and the inhibition at 10 µM was 27.1%.
Take `c1ccc2c(c1)ccn2CCc1nc(-c2cnccn2)no1` [UM_202]: the inhibition at 1 µM was 0% and the inhibition at 10 µM stood at 21.5%.
Regarding `Cn1cnnc1SCc1nc(N)c2c3c(sc2n1)CCCC3` [UM_214], the inhibition at 1 µM turned out to be 27.2% and the inhibition at 10 µM was 62.3%.
Consider `Clc1nc(-c2cccnc2)nc2sc3c(c12)CCCC3` [UM_209], for which the inhibition at 1 µM was determined as 5.53% and the inhibition at 10 µM worked out at 55.3%.
As to `O=c1[nH]c(CSc2ccc3ccccc3n2)nc2ccccc12` [UM_281], the inhibition at 1 µM was determined as 26.6% and the inhibition at 10 µM was determined as 54.5%.
For `Cc1[nH]ccc1C(=O)NC1CCC(N2C(=O)CCC2=O)CC1` (centres unmarked) [UM_211], the inhibition at 1 µM stood at 0% and the inhibition at 10 µM was determined as 0%.
For `CC1CCc2c(sc(NC(=O)c3ccc([N+](=O)[O-])s3)c2C(N)=O)C1` (centres unmarked) [UM_250], the inhibition at 1 µM worked out at 0% and the inhibition at 10 µM turned out to be 0%.
Consider `O=C1CNC(=O)N1CCCOc1ccc2c3c(c(=O)oc2c1)CCCCC3` [UM_258], for which the inhibition at 1 µM is 27.9% and the inhibition at 10 µM was found to be 74%.
On the same counts, the results for `Cc1cc(C)n2nc(SCc3cc(=O)n4cc(Br)ccc4n3)nc2n1` [UM_201] are 3.26% and 30.8%.
Take `Nn1c(SCc2ccc(Br)cc2)nnc(CCC(=O)O)c1=O` [UM_192]: the inhibition at 1 µM turned out to be 0%, the inhibition at 10 µM is 0% and the cell permeability result was “not cell permeable”.
As for `O=C(CSc1ncccn1)c1ccc(O)c(O)c1` [UM_243], the cell permeability entry was “not cell permeable”.
`CC1(C)CCc2c(sc(NC(=O)c3ccc(Cl)s3)c2C(N)=O)C1` [UM_260]: the inhibition at 1 µM worked out at 4.8% and the inhibition at 10 µM came to 31.2%.
Take `COc1ccc2c(O)c(C(=O)N(C)Cc3c(C)noc3C)cnc2c1` [UM_200]: the inhibition at 1 µM is 0% and the inhibition at 10 µM amounted to 17.7%.
Take `CN(CC(=O)NC(C)(C)C)Cn1nc2c3c(cccc31)C(=O)c1ccccc1-2` [UM_224]: the inhibition at 1 µM stood at 18% and the inhibition at 10 µM came to 33.3%.
For `O=c1[nH]c(CSc2ccccc2)nc2ccc(Cl)cc12` [UM_279], the “NanoBRET binding, result in words” value is given as “did not demonstrate significantly improved binding”; the inhibition at 1 µM came to 5.1%; the inhibition at 10 µM worked out at 23.4%.
`Cc1ccnc2nc(C(=O)OCC(=O)c3ccc(Cl)cc3Cl)nn12` [UM_198]: the inhibition at 1 µM came out at 2.17% and the inhibition at 10 µM was found to be 22.7%.
The like results for `Cc1nc2c(sc3nc(N4CCOCC4)c4c(c32)CC(C)(C)OC4)c(=O)o1` [UM_225] were, in that order, 21.7% and 47.7%.
As to `O=C(O)CCc1nnc(SCc2c(Cl)cccc2Cl)[nH]c1=O` [UM_193], the inhibition at 1 µM came to 0%, the inhibition at 10 µM is 0% and the cell permeability result is “not cell permeable”.
Take `O=c1oc2cc(OC3OC(CO)C(O)C(O)C3O)c(Cl)cc2c2c1CCCC2` (centres unmarked) [UM_226]: the inhibition at 1 µM turned out to be 21.8% and the inhibition at 10 µM was 51.6%.
